Measurements from the NIST ThermoML archive (doi:10.1016/j.tca.2009.06.015).

How the values were obtained:
[1] = refractive index (Na D-line) (dimensionless); xn = mol fraction of the nth substance listed; conditions: 101 kPa, Liquid, Standard Abbe refractometry
[2] = xn = mol fraction of the nth substance listed; conditions: 293.15 K, 101 kPa, Liquid; for viscosity: Capillary tube (Ostwald / Ubbelohde) method; for mass density: Vibrating tube method

CCCC(C)O (stereo not given) [pentan-2-ol] + CC#N
refractive index, [1]
Conditions	293.15 K	298.15 K	303.15 K	308.15 K
x2 = 0	1.406	1.4045	1.3724	1.3703
x2 = 0.116	1.4035	1.4012	1.3715	1.3694
x2 = 0.1727	1.402	1.3999	1.3707	1.3687
x2 = 0.2827	1.3981	1.3965	1.3694	1.3679
x2 = 0.3546	1.3951	1.3941	1.3684	1.367
x2 = 0.4458	1.3908	1.3901	1.3666	1.3657
x2 = 0.5366	1.3858	1.3848	1.3641	1.3637
x2 = 0.6488	1.3779	1.3764	1.3608	1.3605
x2 = 0.7671	1.3674	1.3657	1.3561	1.3557
x2 = 0.8793	1.3561	1.3548	1.35	1.3491
x2 = 0.9578	1.3478	1.3461	1.3433	1.3417

[2]
Conditions	mass density [kg/m3]	viscosity [mPa·s]
x2 = 0	809.29	4.298
x2 = 0.116	806.75	2.544
x2 = 0.1727	805.46	2.093
x2 = 0.2827	802.79	1.534
x2 = 0.3546	801.01	1.262
x2 = 0.4458	798.66	1.008
x2 = 0.5366	796.26	0.81
x2 = 0.6488	793.09	0.6391
x2 = 0.7671	789.52	0.5048
x2 = 0.8793	786.03	0.4119
x2 = 0.9578	–	0.3705
